Among the data in patent publication US10202412B2, “β-D-2′-deoxy-2′-substituted-4′-substituted-2-substituted-N6-substituted-6-aminopurinenucleotides for the treatment of paramyxovirus and orthomyxovirus infections” (Atea Pharmaceuticals, Inc., priority 2016, dated 2019) are EC90 and Visual toxicity values, retold here.

In data set [1] the test system is Respiratory syncytial virus (RSV) type A, strain A2 (ATCC VR-1540). Description: dNHBE assay: RSV virus yield reduction (EC90). It counts as cell-based. The conditions noted are these: human respiratory syncytial virus, RSV (A2) in dNHBE cells; concentration reducing virus yield by 1 log10; mean of at least two experiments. The method, then: (§1) Differentiated normal human bronchial epithelial (dNHBE) cells were grown on 6 mm mesh disks in transwell inserts to approximately 1.2×10^6 cells/disk and disks were transferred to individual wells of a 6-well plate. 1 mL of proprietary culture medium was added to the basolateral side of the cells and the apical side was exposed to a humidified 95% air/5% CO2 environment. Cells were cultured at 37° C. for one day and then the mucin layer was removed from the apical side of the cells by repeated (3×) washing with 500 μL 30 mM HEPES buffered saline solution and culture medium on the basal side was replenished.
Respiratory syncytial virus (RSV) type A, strain A2 (ATCC VR-1540), previously passaged in MA-104 cells to make working stock cultures, was diluted 1/10 in medium before infection, using a multiplicity of infection (MOI) of ≤0.03 CCID50 per cell.
(§2) Various concentrations of test compounds in medium were applied in duplicate to the apical (140 μL) and basal sides (1 mL) for a 1 hour pre-treatment, followed by addition of 140 μL of virus inoculum to each cell insert on the apical side. The viral inoculum and treatments were removed after 2 hours. Control cells were treated with placebo (culture medium only). Following infection, the apical medium was removed and the basal side was replaced with fresh compound in medium. The cells were maintained at the air-liquid interface, and cell culture medium on the basal side was replaced daily with fresh medium containing test compound. After 4 days, the liquid was removed from the basal side and discarded and virus released into the apical compartment was harvested by the addition of 500 μL of culture medium. The medium was thoroughly mixed, then removed, diluted 1:1 with 40% sucrose and stored at ≤−80° C.
To determine the virus titer from each treated cell culture, MA-104 cells were seeded in 96-well plates and grown overnight (37° C.) to confluence. Samples containing virus were diluted in 10-fold increments in infection medium and 200 μL of each dilution transferred into respective wells of a 96-well microtiter plate. Four microwells were used for each dilution to determine 50% viral endpoints. After 7 days of incubation, each well was scored positive for virus if any cytopathic effect was observed as compared with the uninfected control. The virus dose that was able to infect 50% of the cell cultures (CCID50 per 0.1 mL) was calculated by the Reed-Muench method. This was repeated in duplicate for each test sample, so that values reported are an average of 2 independent CCID5o determinations. Untreated, uninfected cell controls were tested as negative controls. Statistical differences in the titers were evaluated with a one-way analysis of variance (ANOVA) followed by Dunnett's multiple comparisons test compared with the untreated virus controls.
(§3) Concentrations of test compounds that reduced virus yield by 1 log10 (90% effective concentration; EC90) were calculated by regression analysis. The reported EC90 value is the mean of at least two experiments. Potential toxicity of the test compounds was evaluated microscopically.

In data set [2] the test system is Differentiated normal human bronchial epithelial (dNHBE) cells. In words: dNHBE assay: toxicity evaluated microscopically. Type of data set: cell-based. More on the design: unit not given here. The method, then:
as §1, §2, §3

The term EC90 denotes the point of the concentration-response curve where the effect stands at 90%. In turn, `CC(C)OC(=O)[C@H](C)N[P@](=O)(OC[C@@]1(C)O[C@@H](n2cnc3c(N(C)C)nc(N)nc32)[C@H](F)[C@@H]1O)Oc1ccccc1` [AA] registered an EC90 in data set [1] of 3500 nM. This compound yielded a Visual toxicity in data set [2] above 167.
The like results for `COc1nc(N(C)C)c2ncn([C@@H]3O[C@](C)(CO[P@@](=O)(N[C@@H](C)C(=O)OC(C)C)Oc4ccccc4)[C@@H](O)[C@H]3F)c2n1` [AF, (S)-Isopropyl 2-(((S)-(((2R,3R,4R,5R)-5-(6-(dimethylamino)-2-methoxy-9H-purin-9-yl)-4-fluoro-3-hydroxy-2-methyltetrahydrofuran-2-yl)methoxy)(phenoxy)phosphoryl)amino) propanoate] were, in that order, 180 nM and above 16.
The like results for `CC(C)OC(=O)[C@H](C)N[P@](=O)(OC[C@@]1(CCl)O[C@@H](n2cnc3c(N(C)C)nc(N)nc32)[C@H](F)[C@@H]1O)Oc1ccccc1` [AG, (S)-Isopropyl 2-(((S)-(((2R,3R,4R,5R)-5-(2-amino-6-(dimethylamino)-9H-purin-9-yl)-2-(chloromethyl)-4-fluoro-3-hydroxytetrahydrofuran-2-yl)methoxy)(phenoxy)phosphoryl)amino) propanoate] were, in that order, below 160 nM and above 15.
Taken in the same sequence, the figures for `CNc1nc(F)nc2c1ncn2[C@@H]1O[C@](CCl)(CO[P@@](=O)(N[C@@H](C)C(=O)OC(C)C)Oc2ccccc2)[C@@H](O)[C@H]1F` [AJ, (S)-Isopropyl 2-(((S)-(((2R,3R,4R,5R)-5-(6-(methylamino)-2-fluoro-9H-purin-9-yl)-2-(chloromethyl)-4-fluoro-3-hydroxytetrahydrofuran-2-yl)methoxy)(phenoxy)phosphoryl)amino) propanoate] were above 1600 nM and above 1.6.
Turning to `CNc1nc(N)nc2c1ncn2[C@@H]1O[C@](C)(CO[P@@](=O)(N[C@@H](C)C(=O)OC(C)C)Oc2ccccc2)[C@@H](O)[C@@H]1F` [AK, (S)-Isopropyl 2-(((S)-(((2R,3R,4S,5R)-5-(2-amino-6-(methylamino)-9H-purin-9-yl)-4-fluoro-3-hydroxy-2-methyltetrahydrofuran-2-yl)methoxy)(phenoxy)phosphoryl)amino) propanoate], in data set [1], the 90% effect level (EC90) was put at 1100 nM. The same compound returned a Visual toxicity in data set [2] above 1.7.
The compound `CNc1nc(N)nc2c1ncn2[C@@H]1O[C@](CCl)(CO[P@@](=O)(N[C@@H](C)C(=O)OC(C)C)Oc2ccccc2)[C@@H](O)[C@@H]1F` [AL, (S)-Isopropyl 2-(((S)-(((2R,3R,4S,5R)-5-(2-amino-6-(methylamino)-9H-purin-9-yl)-2-(chloromethyl)-4-fluoro-3-hydroxytetrahydrofuran-2-yl)methoxy)(phenoxy)phosphoryl)amino) propanoate] displayed an EC90 in data set [1] above 1600 nM. Further, the Visual toxicity in data set [2] is recorded as above 1.6.
The like results for `CNc1nc(OC)nc2c1ncn2[C@@H]1O[C@](C)(CO[P@@](=O)(N[C@@H](C)C(=O)OC(C)C)Oc2ccccc2)[C@@H](O)[C@H]1F` [AM, (S)-Isopropyl 2-(((S)-(((2R,3R,4R,5R)-5-(6-(methylamino)-2-methoxy-9H-purin-9-yl)-4-fluoro-3-hydroxy-2-methyltetrahydrofuran-2-yl)methoxy)(phenoxy)phosphoryl)amino) propanoate] were, in that order, 1100 nM and above 1.7.
The like results for `CNc1nc(OC)nc2c1ncn2[C@@H]1O[C@](CCl)(CO[P@@](=O)(N[C@@H](C)C(=O)OC(C)C)Oc2ccccc2)[C@@H](O)[C@H]1F` [AN, (S)-Isopropyl 2-(((S)-(((2R,3R,4R,5R)-5-(6-(methylamino)-2-methoxy-9H-purin-9-yl)-2-(chloromethyl)-4-fluoro-3-hydroxytetrahydrofuran-2-yl)methoxy)(phenoxy)phosphoryl)amino) propanoate] were, in that order, above 1600 nM and above 1.6.
Taken in the same sequence, the figures for `CNc1nc(F)nc2c1ncn2[C@@H]1O[C@](C)(CO[P@@](=O)(N[C@@H](C)C(=O)OC(C)C)Oc2ccccc2)[C@@H](O)[C@@H]1F` [AP, (S)-Isopropyl 2-(((S)-(((2R,3R,4S,5R)-5-(6-(methylamino)-2-fluoro-9H-purin-9-yl)-4-fluoro-3-hydroxy-2-methyltetrahydrofuran-2-yl)methoxy)(phenoxy)phosphoryl)amino) propanoate] were 34 nM and above 1.7.
Regarding `CNc1nc(Cl)nc2c1ncn2[C@@H]1O[C@](C)(CO[P@@](=O)(N[C@@H](C)C(=O)OC(C)C)Oc2ccccc2)[C@@H](O)[C@H]1F` [AR, (S)-Isopropyl 2-(((S)-(((2R,3R,4R,5R)-5-(6-(methylamino)-2-chloro-9H-purin-9-yl)-4-fluoro-3-hydroxy-2-methyltetrahydrofuran-2-yl)methoxy)(phenoxy)phosphoryl)amino) propanoate], in data set [1], the 90% effect level (EC90) was put at 1000 nM. The same compound registered a Visual toxicity in data set [2] above 1.6.
Regarding `CC(C)OC(=O)[C@H](C)N[P@](=O)(OC[C@@]1(C)O[C@@H](n2cnc3c(N(C)C4CC4)nc(N)nc32)[C@H](F)[C@@H]1O)Oc1ccccc1` [AS, (S)-Isopropyl 2-(((S)-(((2R,3R,4R,5R)-5-(2-amino-6-(cyclopropyl(methyl)amino)-9H-purin-9-yl)-4-fluoro-3-hydroxy-2-methyltetrahydrofuran-2-yl)methoxy)(phenoxy)phosphoryl)amino) propanoate], the 90% effect level in data set [1] (EC90) was put at 1500 nM. For the same compound, the Visual toxicity in data set [2] is listed as above 1.6.
Taken in the same sequence, the figures for `CNc1nc(N)nc2c1ncn2[C@@H]1O[C@](CF)(CO[P@@](=O)(N[C@@H](C)C(=O)OC(C)C)Oc2ccccc2)[C@@H](O)[C@@H]1F` [AT, (S)-Isopropyl 2-(((S)-(((2R,3R,4S,5R)-5-(2-amino-6-(methylamino)-9H-purin-9-yl)-4-fluoro-2-(fluoromethyl)-3-hydroxytetrahydrofuran-2-yl)methoxy)(phenoxy)phosphoryl)amino) propanoate] were 180 nM and above 1.6.
The like results for `CNc1nc(NC)c2ncn([C@@H]3O[C@](C)(CO[P@@](=O)(N[C@@H](C)C(=O)OC(C)C)Oc4ccccc4)[C@@H](O)[C@H]3F)c2n1` [AU, (S)-Isopropyl 2-(((S)-(((2R,3R,4R,5R)-5-(2,6-bis(methylamino)-9H-purin-9-yl)-4-fluoro-3-hydroxy-2-methyltetrahydrofuran-2-yl)methoxy)(phenoxy)phosphoryl)amino) propanoate] were, in that order, above 1700 nM and above 1.7.
The like results for `CC(C)OC(=O)[C@H](C)N[P@](=O)(OC[C@@]1(C)O[C@@H](n2cnc3c(NC4CC4)nc(N)nc32)[C@H](F)[C@@H]1O)Oc1ccccc1` [AV, (S)-Isopropyl 2-(((S)-(((2R,3R,4R,5R)-5-(2-amino-6-(cyclopropylamino)-9H-purin-9-yl)-4-fluoro-3-hydroxy-2-methyltetrahydrofuran-2-yl)methoxy)(phenoxy)phosphoryl)amino) propanoate] were, in that order, 99 nM and above 1.6.
`CNc1nc(N)nc2c1ncn2[C@@H]1O[C@](C)(CO[P@@](=O)(N[C@@H](C)C(=O)OC(C)C)Oc2ccccc2)[C@@H](O)[C@H]1F` [Compound AC] registered an EC90 in data set [1] of 74 nM. The compound also returned a Visual toxicity in data set [2] above 1.4.
Take `CC(C)OC(=O)[C@H](C)N[P@](=O)(OC[C@@]1(C)O[C@@H](n2cnc3c(N(C)C)nc(F)nc32)[C@H](F)[C@@H]1O)Oc1ccccc1` [Compound AD, (S)-Isopropyl 2-(((S)-(((2R,3R,4R,5R)-5-(6-(dimethylamino)-2-fluoro-9H-purin-9-yl)-4-fluoro-3-hydroxy-2-methyltetrahydrofuran-2-yl)methoxy)(phenoxy)phosphoryl)amino) propanoate]: the EC90 in data set [1] came to 8400 nM. This compound also had a Visual toxicity in data set [2] above 16.
Consider `CC(C)OC(=O)[C@H](C)N[P@](=O)(OC[C@@]1(C)O[C@@H](n2cnc3c(N(C)C)nc(Cl)nc32)[C@H](F)[C@@H]1O)Oc1ccccc1` [Compound AE, (S)-Isopropyl 2-(((S)-(((2R,3R,4R,5R)-5-(6-(dimethylamino)-2-chloro-9H-purin-9-yl)-4-fluoro-3-hydroxy-2-methyltetrahydrofuran-2-yl)methoxy)(phenoxy)phosphoryl)amino) propanoate], for which the concentration for an effect of 90% (EC90) in data set [1] stood at 9300 nM. This compound also had a Visual toxicity in data set [2] above 16.
